The test system of data set [1] is Puccinia recondita f. sp. Tritici. As to the kind of experiment: Puccinia recondita f. sp. tritici / wheat / leaf disc curative (brown rust). The data set is classed as in vivo. The following applies: foliar, 200 ppm in the applied formulation, wheat leaf segments cv. Kanzler, applied 1 day after inoculation, compared to untreated, assessed 6 to 8 days after application, read-out: disease control. Put shortly:
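Curative leaf-segment test, cv. Kanzler: spore inoculation, dark storage 19° C/75% RH, compound spray 1 day post-inoculation. Then 12 h light/12 h dark, 19° C, 75% RH. Read-out: % disease control vs untreated check, 6–8 d after application.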

Data set [2] has as its system Glomerella lagenarium (Colletotrichum lagenarium). The data set is described as follows: Glomerella lagenarium (Colletotrichum lagenarium) liquid culture / cucumber / preventative (anthracnose). The format is cell-based. The following applies: Colletotrichum orbiculare; 20 ppm in the applied formulation; conidia in PDB nutrient broth, 24° C.; 3 to 4 days after application; compared to untreated; read-out: disease control (inhibition of growth measured photometrically). In short, it runs like this: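 Test compound, diluted from DMSO, was mixed in microtiter wells with fungal conidia taken from cryogenic storage and suspended in PDB nutrient broth. After 3 to 4 days at 24 °C, photometric growth measurement gave antifungal activity as a percentage of the untreated control.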

For data set [3], the system named is Puccinia recondita f. sp. Tritici. The data set is described as follows: Puccinia recondita f. sp. tritici / wheat / leaf disc preventative (brown rust). The format is in vivo. The following applies: foliar, 200 ppm in the applied formulation, wheat leaf segments cv. Kanzler, inoculated 1 day after application, compared to untreated, assessed 7 to 9 days after application, read-out: disease control. Put shortly: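 Compound, diluted from DMSO solution into aqueous 0.025% Tween20, is sprayed at 200 ppm onto cut wheat segments (cv. Kanzler) placed on water agar. One day on, segments receive a fungal spore suspension and are incubated at 19° C., 75% rh, 12 h photoperiod, with % control vs untreated scored at 7–9 days.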

Broadly, the inhibition is the percentage by which the read-out fell short of the control. In general, melting point refers to the temperature of the solid-liquid transition.

`CON(Cc1ccc(-c2noc(C(F)(F)F)n2)cc1)S(C)(=O)=O` [Compound 1.5, N-methoxy-N-[[4-[5-(trifluoromethyl)-1,2,4-oxadiazol-3-yl]phenyl]methyl] methanesulfonamide] registered a melting point of 94 to 96 °C. Besides, the pest or weed control at 200 ppm in data set [1] was at least 80%. The inhibition at 20 ppm in data set [2] was at least 80%.

`CN(C)S(=O)(=O)N(Cc1ccc(-c2noc(C(F)(F)F)n2)cc1)C1CC1` [Compound 1.6, N-(dimethylsulfamoyl)-N-[[4-[5-(trifluoromethyl)-1,2,4-oxadiazol-3-yl]phenyl]methyl] cyclopropanamine]: the melting point was in the range of 82 to 84 °C. Besides, the pest or weed control at 200 ppm in data set [3] was at least 80%. In addition, the inhibition at 20 ppm in data set [2] is at least 80%.

`O=S(=O)(N1CCOCC1)N(Cc1ccc(-c2noc(C(F)(F)F)n2)cc1)C1CC1` [Compound 1.7, N-cyclopropyl-N-[[4-[5-(trifluoromethyl)-1,2,4-oxadiazol-3-yl]phenyl]methyl] morpholine-4-sulfonamide]: the melting point was in the range of 99 to 101 °C. The pest or weed control at 200 ppm in data set [3] is at least 80%. The inhibition at 20 ppm in data set [2] is at least 80%.

`CN(Cc1ccc(-c2noc(C(F)(F)F)n2)cc1)S(=O)(=O)Cc1ccccc1` [Compound 1.14, N-methyl-1-phenyl-N-[[4-[5-(trifluoromethyl)-1,2,4-oxadiazol-3-yl]phenyl]methyl] methanesulfonamide] had a melting point of 109 to 111 °C. The pest or weed control at 200 ppm in data set [3] was at least 80%. In data set [2], the inhibition at 20 ppm was at least 80%.

Consider `O=S(=O)(NCc1ccc(-c2noc(C(F)(F)F)n2)cc1)c1ccccc1` [Compound 3.1, N-[[4-[5-(trifluoromethyl)-1,2,4-oxadiazol-3-yl]phenyl]methyl] benzenesulfonamide], for which the melting point lay within 116 to 124 °C. For the same molecule, in data set [3], the pest or weed control at 200 ppm is at least 80%. Also, the inhibition at 20 ppm in data set [2] was at least 80%.

`O=S(=O)(NCc1ccc(-c2noc(C(F)(F)F)n2)cc1)c1ccc(F)cc1F` [Compound 3.5, 2,4-difluoro-N-[[4-[5-(trifluoromethyl)-1,2,4-oxadiazol-3-yl]phenyl]methyl] benzenesulfonamide] displayed a melting point of 112 to 115 °C. Also, in data set [3], the pest or weed control at 200 ppm is at least 80%.

As for `O=S(=O)(Cc1ccc(Cl)cc1F)NCc1ccc(-c2noc(C(F)(F)F)n2)cc1` [Compound 3.6, 1-(4-chloro-2-fluoro-phenyl)-N-[[4-[5-(trifluoromethyl)-1,2,4-oxadiazol-3-yl]phenyl]methyl] methanesulfonamide], the melting point was 140 to 144 °C. Moreover, the pest or weed control at 200 ppm in data set [3] is at least 80%.

In the case of `O=S(=O)(NCc1ccc(-c2noc(C(F)(F)F)n2)cc1)N1CCOCC1` [Compound 3.8, N-[[4-[5-(trifluoromethyl)-1,2,4-oxadiazol-3-yl]phenyl]methyl] morpholine-4-sulfonamide], the melting point lay within 108 to 110 °C. In addition, in data set [3], the pest or weed control at 200 ppm is at least 80%. Also, the pest or weed control at 200 ppm in data set [1] was at least 80%. The inhibition at 20 ppm in data set [2] was at least 80%.

Source of the values: US20210101874A1, “MICROBIOCIDAL OXADIAZOLE DERIVATIVES” (SYNGENTA PARTICIPATIONS AG, priority 2017, published 2021).
